Assay results from PMC5923123, “In Vitro and In Vivo Efficacy of a Novel and Long-Acting Fungicidal Azole, PC1244, on Aspergillus fumigatus Infection” (Antimicrobial Agents and Chemotherapy, 2018).
Values after ≈ are worked out from the molar mass of the structure shown. Values joined by “and” are separate entries in the source; they are usually repeats but may differ in a detail not shown here. Identical values can stand only once. Like-named read-outs stand apart in the source and are kept apart here.

How the values were obtained:
[1] = system: 96 clinically isolated A. fumigatus strains; experiment: EUCAST MIC against clinical isolates (visual); format: cell-based, Aspergillus fumigatus; settings: 96 clinical isolates
Description: The antifungal activity of PC1244 was further evaluated against 96 clinical isolates (obtained from Saint Louis Hospital, Paris, France [50 isolates], and the North West England Mycology Reference Centre, Manchester, UK [46 isolates]). […] .

[2] = system: Aspergillus carbonarius (ATCC 8740); experiment: CLSI MIC; format: cell-based; settings: ATCC8740, CLSI, 1 strain, read-out: MIC
[3] = system: Rhizopus oryzae(ATCC 11145); experiment: CLSI MIC; format: cell-based; settings: Rhizopus arrhizus, ATCC11145, 1 strain
A. fumigatus (NCPF2010) [4] = experiment: Fungicidal activity by subculture on agar (CFU-MFC)
Experimental: (§2) After the MIC for each compound was recorded, fungicidal activity was determined as previously described ([35]). Briefly, medium from each well (100 μl/well) was removed after pipetting up and down five times and subcultured onto 4% Sabouraud dextrose agar plates. The plates were incubated (35°C with ambient air) for 48 h, and the numbers of CFU were counted for each compound concentration. The minimum fungicidal concentration (MFC) was determined as the lowest compound concentration yielding 3 colonies or less.

[5] = system: Aspergillus niger (ATCC 1015); experiment: EUCAST MIC; format: cell-based; settings: ATCC1015, EUCAST, 1 strain, read-out: MIC
[6] = system: Aspergillus flavus (AFL8, NRRC3357); experiment: EUCAST MIC; format: cell-based; settings: EUCAST, 2 strains, mean MIC, read-out: MIC
[7] = system: A. fumigatus hyphae (NCPF2010); experiment: Persistence of action on A. fumigatus hyphae (resazurin microtiter assay); format: cell-based, Aspergillus fumigatus; settings: for IC50: Aspergillus fumigatus, NCPF2010
Experimental: The duration of action of test agents within the hyphae of A. fumigatus has been determined using a resazurin-based microtiter assay ([28]).
The persistence of action of the test agents against A. fumigatus hyphae (NCPF2010) was determined as previously reported ([28]). […] The plates were incubated for exactly 20 min at 35°C in 5% CO2. After the incubation time had elapsed, all wells on the designated washout plate were aspirated and growth medium (100 μl/well) was added across the plate. […] Resazurin (0.04% diluted in growth medium) was added to all wells of both the nonwashout and washout plates (5 μl/well) to give a final concentration of 0.002% resazurin. The plates were incubated at 35°C in 5% CO2 for 16 h. Subsequently, the fluorescence in each well was measured at an excitation λ of 545 nm and an emission λ of 600 nm using a multiscanner (Clariostar; BMG, Buckinghamshire, UK). […] This study was conducted in quadruplicate in three independent experiments.

[8] = system: Gibberella zeae(Fusarium graminearum) (ATCC 16106); experiment: microbe, parasite or virus in culture; format: cell-based; settings: ATCC16106
A. fumigatus (NCPF2010) [9] = experiment: Broth microdilution MIC (96-well) preceding MFC determination; settings: Aspergillus fumigatus
Experimental: as §2

[10] = system: ergosterol production in A. fumigatus (NCPF2010); experiment: A. fumigatus cell-based ergosterol assay; settings: for IC50: Aspergillus fumigatus
Experimental: CYP51 enzyme-inhibitory activity was also measured in a cell-based assay, as described previously ([28]). In this plate-based ergosterol quantification experiment, oxidation of ergosterol by cholesterol oxidase was determined by observing the conversion of the weakly fluorescent resazurin to the highly fluorescent resorufin and was normalized using crystal violet staining (indicating cell number).
After incubation for 24 h at 35°C, the medium was removed from all wells and replaced with reaction buffer (catalog number A12216; Amplex red cholesterol assay kit; Thermo Fisher) and Amplex red solution. The plates were incubated for 30 min at 37°C with protection from light, after which the fluorescence was quantified using a spectrophotometer. The medium was removed from all wells and replaced with crystal violet solution (1%, vol/vol), and the plates were incubated at room temperature on a shaker for 30 min. The plates were washed three times with phosphate-buffered saline (PBS), and sodium dodecyl sulfate solution (0.1%, vol/vol) was added across the plate to lyse the cells. After incubation at room temperature for 1 h, the absorbance (OD) at 590 nm was measured using a spectrophotometer.

[11] = system: Penicillium citrinum (ATCC 9849); experiment: CLSI MIC; format: cell-based; settings: ATCC9849, 1 strain
[12] = system: Cryptococcus neoformans (ATCC 24067); experiment: CLSI MIC; format: cell-based; settings: ATCC24067, CLSI, 1 strain, read-out: MIC
A. fumigatus (NCPF2010) [13] = experiment: Fungicidal activity by XTT colorimetric method (XTT-MFC)
Experimental: In addition, the fungicidal effect of each compound was determined using 2,3-bis-(2-methoxy-4-nitro-5-sulfophenyl)-2H-tetrazolium-5-carboxanilide salt (XTT)-based quantitative colorimetric analysis (XTT-MFC).
After the removal of medium for culture-based testing of the number of CFU, the contents of all wells were carefully aspirated and warm PBS (200 μl/well) was added. After gentle agitation, the contents of all wells were aspirated and fresh medium was added (200 μl/well). The plates were incubated (35°C with ambient air) for 24 h. […] The plates were incubated (35°C with ambient air) for 2 h, after which the plates were agitated gently for 2 min. The optical density (OD) of each well at 450 nm and 620 nm was measured using a multiscanner (Clariostar; BMG, Buckinghamshire, UK).

[14] = system: Candida albicans (20240.047, ATCC 10231); experiment: CLSI MIC; format: cell-based; settings: ATCC10231, CLSI, 2 strains, mean MIC, MIC = 50% inhibition of fungal growth, read-out: MIC
[15] = system: Rhizomucor pusillus (ATCC 16458); experiment: CLSI MIC; format: cell-based; settings: ATCC16458, 1 strain
[16] = system: Trichophyton rubrum (ATCC 10218); experiment: CLSI MIC; format: cell-based; settings: ATCC10218, 1 strain
[17] = system: Aureobasidium pullulans (ATCC 348); experiment: CLSI MIC; format: cell-based; settings: ATCC348, 1 strain
[18] = system: Penicillium chrysogenum (ATCC 9480); experiment: CLSI MIC; format: cell-based; settings: ATCC9480, 1 strain
A. fumigatus AF72 = experiment: EUCAST broth microdilution growth inhibition (OD 530 nm, 384-well); format: cell-based; settings: Aspergillus fumigatus, strain AF72 (ITC-resistant), 48 h
Experimental: (§1) The antifungal activities of the test compounds against A. fumigatus strains (itraconazole [ITC]-susceptible strains NCPF2010, AF294, and AF293; ITC-resistant strains AF72 and AF91) were calculated from growth curves generated by spectrophotometric analysis and compared to the activities against positive and negative controls.

A. fumigatus AF293 = experiment: as above; format: cell-based; settings: Aspergillus fumigatus, strain AF293 (ITC-susceptible), 48 h
Experimental: as §1

A. fumigatus NCPF2010 = experiment: as above; format: cell-based; settings: Aspergillus fumigatus, strain NCPF2010 (ITC-susceptible), 48 h, range tested 0.002 to 1 μg/ml
Experimental: as §1

A. fumigatus AF294 = experiment: as above; format: cell-based; settings: Aspergillus fumigatus, strain AF294 (ITC-susceptible), 48 h
Experimental: as §1

A. fumigatus AF91 = experiment: as above; format: cell-based; settings: Aspergillus fumigatus, strain AF91 (ITC-resistant), 48 h
Experimental: as §1

[19] = system: Lichtheimia corymbifera (ATCC 7909); experiment: CLSI MIC; format: cell-based; settings: ATCC7909, 1 strain
[20] = system: Cladosporium argillaceum (ATCC 38013); experiment: CLSI MIC; format: cell-based; settings: Rhizocladosporium argillaceum, ATCC38013, 1 strain
[21] = system: Aspergillus flavus (ATCC 204304); experiment: CLSI MIC; format: cell-based; settings: ATCC204304, CLSI, 1 strain, read-out: MIC

## Cc1cc(N2CCN(c3ccc(C(=O)N[C@H]4CCCC[C@@H]4O)cc3)CC2)ccc1OC[C@@H]1CO[C@@](Cn2cncn2)(c2ccc(F)cc2F)C1 [PC1244, 4-(4-(4-(((3R,5R)-5-((1H-1,2,4-triazol-1-yl)methyl)-5-(2,4-difluorophenyl)tetrahydrofuran-3-yl)methoxy)-3-methylphenyl)piperazin-1-yl)-N-((1S,2S)-2-hydroxycyclohexyl)benzamide]
[1]
  fold more potent than VRC on the basis of geometric mean MICs: 6.2 fold
[1]; visual
  MIC Range: 0.008 to 2 µg/mL
[1]; Aspergillus fumigatus, visual
  MIC50: 0.032 µg/mL (≈ 0.0466 µM)
  MIC90: 0.5 µg/mL (≈ 0.728 µM)
[1]; Aspergillus fumigatus, visual, read-out: MIC Geometric mean
  MIC: 0.067 µg/mL (≈ 0.0976 µM)
[1]; Aspergillus fumigatus, visual, read-out: MIC Mode
  MIC: 0.016 µg/mL (≈ 0.0233 µM)
[2]
  MIC: 0.063 µg/mL (≈ 0.0917 µM)
[3]
  MIC: 0.25 µg/mL (≈ 0.364 µM)
A. fumigatus (NCPF2010) [4]
  fold stronger than POS (CFU-MFC): 2 fold
  fold stronger than VRC (CFU-MFC): 8 fold
A. fumigatus (NCPF2010) [4]; Aspergillus fumigatus, NCPF2010, 48 h, read-out: CFU-MFC
  MFC: 2 µg/mL (≈ 2.91 µM)
A. fumigatus (NCPF2010) [4]; NCPF2010
  CFU-MFC/MIC ratio: 32
[5]
  MIC: 0.5 µg/mL (≈ 0.728 µM)
[6]
  MIC: 0.38 µg/mL (≈ 0.553 µM)
[7]
  Hyphae Fold change (washout vs no washout): 2.4 fold and 2.41 fold
[7]; 20 min contact, washout, 16 h incubation, read-out: Hyphae IC50 Washout
  IC50: 0.00025 µg/mL (≈ 0.000364 µM)
[7]; continuous contact 16 h, read-out: Hyphae IC50 No washout
  IC50: 0.00011 µg/mL (≈ 0.00016 µM)
[7]; no washout IC50
  fold more potent than POS at inhibiting hyphal growth: 4.1 fold
  fold more potent than VRC at inhibiting hyphal growth: 100 fold
[8]
  MIC: 1 µg/mL (≈ 1.46 µM)
A. fumigatus (NCPF2010) [9]
  MIC: 0.063 µg/mL (≈ 0.0917 µM)
[10]
  fold more potent than POS at inhibiting ergosterol production: 2.2 fold
  fold more potent than VRC at inhibiting ergosterol production: 12 fold
[10]; NCPF2010, 24 h, read-out: IC50, inhibition of ergosterol production
  IC50: 0.0055 µg/mL
[10]; NCPF2010, read-out: 50% inhibitory concentration, ergosterol synthesis
  IC50: 8 nM
[11]
  MIC: 0.5 µg/mL (≈ 0.728 µM)
[12]
  MIC: 0.016 µg/mL (≈ 0.0233 µM)
A. fumigatus (NCPF2010) [13]
  fold more potent than POS (XTT-MFC): 3 fold
  fold more potent than VRC (XTT-MFC): > 229 fold
A. fumigatus (NCPF2010) [13]; Aspergillus fumigatus, NCPF2010, read-out: XTT-MFC
  MFC: 0.14 µg/mL (≈ 0.204 µM)
A. fumigatus (NCPF2010) [13]; Aspergillus fumigatus, NCPF2010, read-out: maximum inhibition of fungicidal activity
  inhibition at 1 µg/mL: 99.9%
A. fumigatus (NCPF2010) [13]; NCPF2010
  XTT-MFC/MIC ratio: 2.2
A. fumigatus (NCPF2010) [13]; NCPF2010, cutoff 99% inhibition
  XTT-MFC: 0.14 ± 0.0058 µg/mL
[14]
  MIC: < 0.0078 µg/mL
[15]
  MIC: 2 µg/mL (≈ 2.91 µM)
[16]
  MIC: 0.031 µg/mL (≈ 0.0451 µM)
[17]
  MIC: 1 µg/mL (≈ 1.46 µM)
[18]
  MIC: 0.13 µg/mL (≈ 0.189 µM)
A. fumigatus AF72
  IC50: 0.0024 µg/mL (≈ 0.00349 µM)
  IC90: 0.026 µg/mL (≈ 0.0379 µM)
A. fumigatus AF293
  IC50: 0.0026 µg/mL (≈ 0.00379 µM)
  IC90: 0.012 µg/mL (≈ 0.0175 µM)
A. fumigatus NCPF2010
  IC50: 0.0017 µg/mL (≈ 0.00248 µM)
  IC90: 0.0022 µg/mL (≈ 0.0032 µM)
A. fumigatus AF294
  IC50: 0.0021 µg/mL (≈ 0.00306 µM)
  IC90: 0.0041 µg/mL (≈ 0.00597 µM)
A. fumigatus AF91
  IC50: 0.0037 µg/mL (≈ 0.00539 µM)
  IC90: 0.024 µg/mL (≈ 0.0349 µM)
[19]
  MIC: 1 µg/mL (≈ 1.46 µM)
[20]
  MIC: 0.25 µg/mL (≈ 0.364 µM)
[21]
  MIC: 0.25 µg/mL (≈ 0.364 µM)
